Earlier results as cited in patent US20250325473A1, “COLLAGEN-IMPREGNATED DEVICES AND METHODS FOR TREATMENT OF CANCER” (COLLAGEN MATRIX, INC., priority 2022, published 2025).
Square brackets hold non-standard residues; d marks the D form. Ends that are not written are not given here. Hyp = O=C(O)[C@@H]1C[C@@H](O)CN1

Key:
Set-up in all cases: key: A plus sign (+) indicates a response similar in peptides II-22, III-23, or GPS-GFO (control); a minus sign (−) Indicates less than 20% of control; +/−: +/ − indicates 20-80% of control
His-DDR2 or DS2-Fc = conditions: binding to His-DDR2 or DS2-Fc, response relative to control peptides II-22, III-23 or GPS-GFO; guest sequences flanked by (GPP)
DDR1-Fc or DDR1-Fc2 = conditions: binding to DDR1-Fc or DDR1-Fc2, response relative to control peptides II-22, III-23 or GPS-GFO; guest sequences flanked by (GPP)
DDR2-Fc or DDR2-Fc2 = conditions: binding to DDR2-Fc or DDR2-Fc2, response relative to control peptides II-22, III-23 or GPS-GFO; includes data from Konitsiotis et al. 2008
DDR2-Fc or DDR2-Fc2, sequence (Q16832 30-185 limits assumed): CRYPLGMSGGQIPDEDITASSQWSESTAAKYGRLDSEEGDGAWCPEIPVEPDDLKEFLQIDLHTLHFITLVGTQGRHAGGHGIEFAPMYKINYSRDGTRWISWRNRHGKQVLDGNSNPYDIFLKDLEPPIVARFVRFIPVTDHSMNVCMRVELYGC

His-DDR2 or DS2-Fc, sequence (Q16832 30-185 limits assumed): as above
DDR1-Fc or DDR1-Fc2, sequence (Q08345 31-185 limits assumed): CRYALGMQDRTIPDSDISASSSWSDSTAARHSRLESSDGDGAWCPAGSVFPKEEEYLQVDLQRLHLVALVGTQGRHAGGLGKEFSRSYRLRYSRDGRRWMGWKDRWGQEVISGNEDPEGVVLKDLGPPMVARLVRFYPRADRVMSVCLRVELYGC

Substance | DDR2 binding (His-DDR2 or DS2-Fc) | DDR1 binding (DDR1-Fc or DDR1-Fc2) | DDR2 binding (DDR2-Fc or DDR2-Fc2)
(GAP) -GPRGQOGVMGFO-(GAP) (GAPGAPGAPGAPGAPGPRGQ[Hyp]GVMGF[Hyp]GAPGAPGAPGAPGAP; not fully specified) [GAP-GPR-GFO, non-helical peptide flanked by (GAP) instead of (GPP)] | +/− (+/ − indicates 20-80% of control) | − (a minus sign (−) indicates less than 10% of control) | − (a minus sign (−) indicates less than 10% of control)
GAKGSAGAOGIAGAOGFOGPRGPOGPQ (GAKGSAGA[Hyp]GIAGA[Hyp]GF[Hyp]GPRGP[Hyp]GPQ; not fully specified) [II- ? 3, label partly illegible] |  | − (a minus sign (−) indicates less than 10% of control) | +
GAOGEDGROGPOGPQGARGQOGVMGFO (GA[Hyp]GEDGR[Hyp]GP[Hyp]GPQGARGQ[Hyp]GVMGF[Hyp]; not fully specified) [II-22] | + | + | +
GAOGPLGIAGITGARGLAGPOGMOGPR (GA[Hyp]GPLGIAGITGARGLAGP[Hyp]GM[Hyp]GPR; not fully specified) [III-44] |  | − (a minus sign (−) indicates less than 10% of control) | +
GARGAQGPOGATGFOGAAGRVGPOGSN (GARGAQGP[Hyp]GATGF[Hyp]GAAGRVGP[Hyp]GSN; not fully specified) [II- ? 9, label partly illegible] |  | +/− ((+/− indicates 30-80% of control) | +/− ((+/− indicates 30-80% of control)
GARGEOGNIGFO (GARGE[Hyp]GNIGF[Hyp]; not fully specified) [CI-alpha2] | − (a minus sign (−) Indicates less than 20% of control) | +/− ((+/− indicates 30-80% of control) | (+)/− ((+)/− indicates 20-30% of control)
GARGFOGTOGLOGVKGRRGYOGLDGAK [II-5] |  | − (a minus sign (−) indicates less than 10% of control) | +/− ((+/− indicates 30-80% of control)
GARGQAGVMGFO (GARGQAGVMGF[Hyp]; not fully specified) [CI-alpha1] | + | + | +
GARGQOGVMGFO (GARGQ[Hyp]GVMGF[Hyp]; not fully specified) [GAR-GFO] |  | + | 
GASGDRGPOGPVGPOGLTGPAGEOGRE [II-46] |  | +/− ((+/− indicates 30-80% of control) | − (a minus sign (−) indicates less than 10% of control)
GERGLOGPOGIKGPAGIDGFOGMKGHR [III-5] |  | − (a minus sign (−) indicates less than 10% of control) | +
GFOGER [GPOGER] | − (a minus sign (−) Indicates less than 20% of control) | − (a minus sign (−) indicates less than 10% of control) | − (a minus sign (−) indicates less than 10% of control)
GFOGPK (GF[Hyp]GPK; not fully specified) | − (a minus sign (−) Indicates less than 20% of control) | − (a minus sign (−) indicates less than 10% of control) | − (a minus sign (−) indicates less than 10% of control)
GLAGRQGIVGLDGQRGERGFOGLOGPS [II-44] |  | − (a minus sign (−) indicates less than 10% of control) | +
GPOGPQGVKGERGSDGGDGAAGFOGAR [III- ? 9] |  | − (a minus sign (−) indicates less than 10% of control) | +
GPOGPSGPRGQOGVMGFOGPKGNDGAO (GP[Hyp]GPSGPRGQ[Hyp]GVMGF[Hyp]GPKGNDGA[Hyp]; not fully specified) [III-23] | + | + | +

Substance | DDR2 binding (His-DDR2 or DS2-Fc) | DDR1 binding (DDR1-Fc or DDR1-Fc2) | DDR2 binding (DDR2-Fc or DDR2-Fc2)
GPRGQOGVMGFO [GPR-GFO] | + | + | +
GPRGQOGVMGFOGPK (GPRGQ[Hyp]GVMGF[Hyp]GPK; not fully specified) [GPR-GPK] | − (a minus sign (−) Indicates less than 20% of control) | (+)/− ((+)/− indicates 20-30% of control) | +
GPSGARGQOGVMGFO (GPSGARGQ[Hyp]GVMGF[Hyp]; not fully specified) [GPS-GFO-5A] | − (a minus sign (−) Indicates less than 20% of control) | + | +
GPSGPAGQOGVMGFO (GPSGPAGQ[Hyp]GVMGF[Hyp]; not fully specified) [GPS-GFO-6A] | + | +/− ((+/− indicates 30-80% of control) | +/− ((+/− indicates 30-80% of control)
GPSGPRGAOGVMGFO (GPSGPRGA[Hyp]GVMGF[Hyp]; not fully specified) [GPS-GFO-8A] | +/− (+/ − indicates 20-80% of control) | + | +
GPSGPRGQAGVMGFO (GPSGPRGQAGVMGF[Hyp]; not fully specified) [GPS-GFO-9A] | + | + | +
GPSGPRGQO (GPSGPRGQ[Hyp]; not fully specified) [GPS-GQO] | − (a minus sign (−) Indicates less than 20% of control) | − (a minus sign (−) indicates less than 10% of control) | − (a minus sign (−) indicates less than 10% of control)
GPSGPRGQOGAMGFO (GPSGPRGQ[Hyp]GAMGF[Hyp]; not fully specified) [GPS-GFO-11A] | + | + | +
GPSGPRGQOGVAGFO (GPSGPRGQ[Hyp]GVAGF[Hyp]; not fully specified) [GPS-GFO-12A] | + | − (a minus sign (−) indicates less than 10% of control) | (+)/− ((+)/− indicates 20-30% of control)
GPSGPRGQOGVM (GPSGPRGQ[Hyp]GVM; not fully specified) [GPS-GVN] | − (a minus sign (−) Indicates less than 20% of control) | − (a minus sign (−) indicates less than 10% of control) | − (a minus sign (−) indicates less than 10% of control)
GPSGPRGQOGVMGAO (GPSGPRGQ[Hyp]GVMGA[Hyp]; not fully specified) [GPS-GFO-14A] | − (a minus sign (−) Indicates less than 20% of control) | − (a minus sign (−) indicates less than 10% of control) | − (a minus sign (−) indicates less than 10% of control)
GPSGPRGQOGVMGFA (GPSGPRGQ[Hyp]GVMGFA; not fully specified) [GPS-CFO-15A] | +/− (+/ − indicates 20-80% of control) | (+)/− ((+)/− indicates 20-30% of control) | +/− ((+/− indicates 30-80% of control)
GPSGPRGQOGVMGFO [GPS-GFO] | + | + | +
GQOGVMGFO (GQ[Hyp]GVMGF[Hyp]; not fully specified) [GQO-GFO] | + | +/− ((+/− indicates 30-80% of control) | +/− ((+/− indicates 30-80% of control)
GQOGVMGFOGPKGANGEOGKAGEKGLO (GQ[Hyp]GVMGF[Hyp]GPKGANGE[Hyp]GKAGEKGL[Hyp]; not fully specified) [II-23] | + | − (a minus sign (−) indicates less than 10% of control) | +
GVMGFO (GVMGF[Hyp]; not fully specified) | +/− (+/ − indicates 20-80% of control) | +/− ((+/− indicates 30-80% of control) | +/− ((+/− indicates 30-80% of control)
